Experimental data as given in US10231453B2, “5-substituted imidazole derivatives” (BAYER CROPSCIENCE AKTIENGESELLSCHAFT, priority 2015, dated 2019).

Legend:
Uromyces appendiculatus = assay: In vivo preventive test on Uromyces appendiculatus (bean rust), Examples G and R7; conditions: 264 h, 500 ppm of active ingredient, bean, preventive spray, evaluated 11 days after inoculation, read-out: efficacy
[1] = Measurement of LogP values by HPLC on reversed phase columns (EEC directive 79/831 Annex V.A8); assay type: physicochemical; conditions: method [a]: LC-UV, acidic range, 0.1% formic acid in water and acetonitrile as eluent; Table 1
Protocol: Measurement of Log P values was performed as outlined above.

Alternaria brassicae = assay: In vivo preventive test on Alternaria brassicae (leaf spot on radish), Examples A and R1; conditions: Alternaria brassicae, 144 h, 500 ppm of active ingredient, preventive spray, evaluated 6 days after inoculation, read-out: efficacy
Septoria tritici = assay: In vivo preventive test on Septoria tritici (leaf spot on wheat), Examples E, Q3 and R5; conditions: Zymoseptoria tritici, 576 h, 500 ppm of active ingredient; wheat, preventive spray, evaluated 24 days after inoculation; read-out: efficacy
Puccinia recondita = assay: In vivo preventive test on Puccinia recondita (brown rust on wheat), Examples C and R3; conditions: Puccinia recondita, 264 h; 500 ppm of active ingredient; wheat, preventive spray, evaluated 11 days after inoculation; read-out: efficacy
Sphaerotheca fuliginea = assay: In vivo preventive test on Sphaerotheca fuliginea (powdery mildew on cucurbits), Examples F and R6; conditions: Podosphaera fuliginea, 360 h; 500 ppm of active ingredient; gherkin, preventive spray, evaluated 15 days after inoculation; read-out: efficacy
Pyrenophora teres = assay: In vivo preventive test on Pyrenophora teres (net blotch on barley), Examples D, Q2 and R4; conditions: Pyrenophora teres, 336 h, 500 ppm of active ingredient, preventive spray, evaluated 14 days after inoculation, read-out: efficacy
[2] = tested on: Blumeria graminis fsp. hordei; assay: In vivo preventive Blumeria test (barley), Example K; conditions: 168 h, 500 ppm of active ingredient, preventive spray, evaluated 7 days after inoculation, read-out: efficacy
Source text: After the spray coating has been dried, the plants are dusted with spores of Blumeria graminis fsp. hordei.

[3] = tested on: Fusarium nivale (var. majus); assay: In vivo preventive Fusarium nivale (var. majus) test (wheat), Example O; conditions: Microdochium nivale, 120 h, 500 ppm of active ingredient, preventive spray, evaluated 5 days after inoculation, read-out: efficacy
Source text: After the spray coating has been dried, the plants are slightly injured by using a sandblast and afterwards they are sprayed with a conidia suspension of Fusarium nivale (var. majus).

Leptosphaeria nodorum = assay: In vivo preventive Leptosphaeria nodorum test (wheat), Example N; conditions: Parastagonospora nodorum, 192 h, 500 ppm of active ingredient, preventive spray, evaluated 8 days after inoculation, read-out: efficacy
Source text: After the spray coating has been dried, the plants are sprayed with a spore suspension of Leptosphaeria nodorum.

Pyricularia oryzae = assay: whole plant or invertebrate; assay type: in vivo; conditions: 192 h, read-out: efficacy
Botrytis cinerea = assay: In vivo preventive test on Botrytis cinerea (grey mould) on gherkin, Examples B, Q1 and R2; conditions: Botrytis cinerea, 500 ppm of active ingredient, preventive spray, evaluated 4 to 5 days after inoculation, read-out: efficacy
Phakopsora pachyrhizi = assay: In vivo preventive Phakopsora test (soybeans), Example I; conditions: 168 h, 100 ppm of active ingredient, preventive spray, evaluated 7 days after inoculation, read-out: efficacy
Alternaria solani = assay: In vivo preventive Alternaria test (tomatoes), Example H; conditions: 72 h, 100 ppm of active ingredient, preventive spray, evaluated 3 days after inoculation, read-out: efficacy
Venturia inaequalis = assay: In vivo preventive Venturia test (apples), Example J; conditions: 240 h, read-out: efficacy
Protocol: After the spray coating has dried on, the plants are inoculated with an aqueous conidia suspension of the causal agent of apple scab (Venturia inaequalis) and then remain for 1 day in an incubation cabinet at approximately 20° C. and a relative atmospheric humidity of 100%.
The plants are then placed in a greenhouse at approximately 21° C. and a relative atmospheric humidity of approximately 90%.
The test is evaluated 10 days after the inoculation.

Fusarium graminearum = assay: whole plant or invertebrate; assay type: in vivo; conditions: in Hordeum vulgare, 120 h, read-out: efficacy

Structure (SMILES)	pest or weed control at 500 ppm (Uromyces appendiculatus) [%]	chromatographic logP [1]	pest or weed control at 500 ppm (Alternaria brassicae) [%]	pest or weed control at 500 ppm (Septoria tritici) [%]	pest or weed control at 500 ppm (Puccinia recondita) [%]	pest or weed control at 500 ppm (Sphaerotheca fuliginea) [%]	pest or weed control at 500 ppm (Pyrenophora teres) [%]	pest or weed control at 500 ppm [2] [%]	pest or weed control at 500 ppm [3] [%]	pest or weed control at 500 ppm (Leptosphaeria nodorum) [%]	pest or weed control at 500 ppm (Pyricularia oryzae) [%]	pest or weed control at 500 ppm (Botrytis cinerea) [%]	pest or weed control at 100 ppm (Phakopsora pachyrhizi) [%]	pest or weed control at 100 ppm (Alternaria solani) [%]	pest or weed control at 100 ppm (Venturia inaequalis) [%]	pest or weed control at 500 ppm (Fusarium graminearum) [%]
COC(=O)c1cncn1CC(O)(Cc1ccccc1Cl)C1(Cl)CC1 (centres unmarked) [Example I-01]	90 to 100	2.82	80 to 89	90 to 100	90 to 100	90 to 100	90 to 100	90 to 100	70 to 79							
OC(Cc1c(Cl)ccnc1Cl)(Cn1cncc1Cl)C1(Cl)CC1 (centres unmarked) [Example I-11]	90 to 100	2.02		90 to 100	80 to 89	90 to 100	80 to 89		80 to 89	80 to 89	80 to 89					
OC(Cc1ccccc1F)(Cn1cncc1Br)C1(Cl)CC1 (centres unmarked) [Example I-33]	90 to 100	2.1	90 to 100	90 to 100	80 to 89	90 to 100	80 to 89	90 to 100		90 to 100		90 to 100	90 to 100	90 to 100	90 to 100	
N#Cc1cncn1CC(O)(Cc1ccc(Br)cc1Cl)C1(Cl)CC1 (centres unmarked) [Example I-41]	90 to 100	3.52		90 to 100	90 to 100	90 to 100		90 to 100	80 to 89	70 to 79						90 to 100
OC(Cc1ccc(Br)cc1F)(Cn1cncc1Cl)C1(Cl)CC1 (centres unmarked) [Example I-44]	90 to 100	2.64		90 to 100	80 to 89	90 to 100	90 to 100	90 to 100		80 to 89	70 to 79	90 to 100	90 to 100	90 to 100	90 to 100	70 to 79
N#Cc1cncn1CC(O)(Cc1cccc(Cl)c1Cl)C1(Cl)CC1 (centres unmarked) [Example I-49]	90 to 100	3.25		90 to 100	90 to 100	90 to 100	90 to 100	90 to 100	80 to 89	80 to 89	80 to 89					70 to 79
N#Cc1cncn1CC(O)(Cc1ccnc(Cl)c1Cl)C1(Cl)CC1 (centres unmarked) [Example I-50]	90 to 100	2.47		90 to 100	80 to 89	90 to 100	80 to 89	90 to 100	90 to 100		70 to 79		80 to 89	70 to 79	80 to 89	
OC(Cc1ccncc1Cl)(Cn1cncc1Cl)C1(Cl)CC1 (centres unmarked) [Example I-72]	90 to 100	1.52		90 to 100	80 to 89	90 to 100	80 to 89	90 to 100	90 to 100	90 to 100	90 to 100	70 to 79				70 to 79
N#Cc1cncn1CC(O)(Cc1ccccc1C(F)(F)F)C1(Cl)CC1 (centres unmarked) [Example I-88]	90 to 100	3.15		90 to 100	90 to 100	90 to 100	90 to 100	90 to 100	80 to 89							90 to 100
N#Cc1cncn1CC(O)(Cc1ccccc1Cl)C1(F)CC1 (centres unmarked) [Example I-98]	90 to 100	2.53		90 to 100	90 to 100	90 to 100	90 to 100	90 to 100			90 to 100	70 to 79	90 to 100	90 to 100	90 to 100	90 to 100
N#Cc1cncn1CC(O)(Cc1ccc(F)c(F)c1F)C1(Cl)CC1 (centres unmarked) [Example I-103]	90 to 100	2.92		90 to 100	90 to 100	90 to 100	80 to 89	90 to 100					90 to 100	80 to 89	80 to 89	90 to 100
N#Cc1cncn1CC(O)(Cc1ccc(F)c(F)c1)C1(Cl)CC1 (centres unmarked) [Example I-109]	90 to 100	2.78		90 to 100	90 to 100	90 to 100	90 to 100	90 to 100	80 to 89							90 to 100
CC(C)(C)C(O)(Cc1ccccc1F)Cn1cncc1C#N (centres unmarked) [Example I-138]	90 to 100	2.73		90 to 100	90 to 100	90 to 100		90 to 100			80 to 89	80 to 89	90 to 100		70 to 79	90 to 100
N#Cc1cncn1CC(O)(Cc1ccnc(Cl)c1F)C1(Cl)CC1 (centres unmarked) [Example I-152]	90 to 100	2.25		90 to 100	90 to 100	90 to 100	70 to 79	90 to 100	90 to 100	70 to 79						70 to 79
N#Cc1cncn1CC(O)(Cc1ccc(F)cc1Cl)C1(Cl)CC1 (centres unmarked) [Example I-154]	90 to 100	3		90 to 100	90 to 100	90 to 100		90 to 100	90 to 100	90 to 100	70 to 79	80 to 89				90 to 100
OC(Cc1ccncc1F)(Cn1cncc1Cl)C1(Cl)CC1 (centres unmarked) [Example I-164]	90 to 100	1.46		90 to 100	80 to 89	90 to 100	80 to 89	90 to 100	80 to 89		70 to 79	90 to 100				
